Experiment [1] concerns the target wild-type yeast alcohol dehydrogenase. Conditions: read-out: Ki, CF3CH2OH; pH 7.3, 30 °C, 83 mM potassium phosphate, 40 mM KCl; cited from earlier work.
The target of experiment [2] is H44R yeast alcohol dehydrogenase. Conditions: read-out: Ki, CF3CH2OH; pH 7.3, 30 °C, 83 mM potassium phosphate, 40 mM KCl; cited from earlier work.
In experiment [3] the target is H48Q yeast alcohol dehydrogenase. As to conditions: read-out: Ki, CF3CH2OH; pH 7.3, 30 °C, 83 mM potassium phosphate, 40 mM KCl; cited from earlier work.
Experiment [4] concerns the target H44R/H48Q yeast alcohol dehydrogenase (Saccharomyces cerevisiae, UniProt P00330, H45R/H49Q). The experiment is described as follows: biochemical.

In general, Ki refers to a measure of affinity in units of concentration, obtained from inhibition or displacement.

Sequence of H44R/H48Q yeast alcohol dehydrogenase (P00330 2-348 H45R/H49Q): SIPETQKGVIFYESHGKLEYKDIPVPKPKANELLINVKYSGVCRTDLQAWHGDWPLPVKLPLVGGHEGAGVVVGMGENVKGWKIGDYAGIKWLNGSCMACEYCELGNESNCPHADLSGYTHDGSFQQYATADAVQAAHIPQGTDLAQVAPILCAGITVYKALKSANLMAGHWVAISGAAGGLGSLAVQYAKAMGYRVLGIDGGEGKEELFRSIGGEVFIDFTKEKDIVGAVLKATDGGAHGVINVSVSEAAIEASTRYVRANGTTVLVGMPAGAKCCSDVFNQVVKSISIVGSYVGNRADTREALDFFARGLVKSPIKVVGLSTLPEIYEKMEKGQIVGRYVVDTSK

Take `OCC(F)(F)F` [CF3CH2OH, 2,2,2-trifluoroethanol, reference compound]: the Ki in experiment [1] was 2.5 mM; in experiment [2] it was 19 mM; in experiment [3] it was 33 mM; in experiment [4], 55 mM.

Values taken from publication PMC11090211 (Chemico-biological interactions, 2024).
